# Tests used:
# [1] = test system: MMP-9 production of U937 cells; test: MMP-9 ELISA of conditioned media from TNFα-stimulated U937 monocyte cells; type: cell-based, Human; settings: for MMP-9 production, Average: U937 cells, 24 hours, ELISA of conditioned media
# Protocol: U937 cells and RPMI 1640 culture medium were obtained from ATCC. Human MMP-9 ELISA Kit (QUANTIKINE) was obtained from R&D Systems. Fetal Bovine Serum (FBS) was obtained from VWR, and the penicillin-streptomycin solution and Tumor Necrosis Factor α (TNFα) were obtained from Sigma.
# Human leukemia U937 monocyte lymphoma cells were cultured in RPMI 1640 medium supplemented with 10% FBS and 1% Penicillin-Streptomycin solution. Cells were incubated at 37° C. in a humidified atmosphere containing 5% CO2 and 95% air. Before treatment, cells were transferred into RPMI containing 1% FBS for overnight. Cells were plated on a 48 well plate. Cell culture medium included either TNFα (250 ng/mL), Triclosan (1 ppm), or both agents together or no agent (control). Cells were incubated after treatment for 24 hours. Conditioned media were collected and store at −80° C. until analysis. Samples of conditioned media were subjected to enzyme-linked immunosorbent assays (ELISA) for MMP-9, according to commercial ELISA protocol (FIG. 1).
# [2] = PEG 600 present in a weight ratio of 25 triclosan:1 PEG 600, versus absence of polyethylene glycol; cited from earlier work
# [3] = test system: MMP-13 expression in UMR 106-01 cells; test: MMP-13 expression by real time quantitative RT-PCR in PTH stimulated UMR 106-01 cells; type: cell-based, Rat; settings: 4 hours; for MMP-13 expression in PTH stimulated UMR cells: PTH 10^-8 M
# Protocol: Parathyroid hormone (rat PTH 1-34) was purchased from Sigma. UMR 106-01 cells were cultured in Eagle's minimal essential medium (EMEM) supplemented with 25 mM Hepes pH 7.4, 1% nonessential amino acids, 100 units/ml penicillin, 100 μg/ml streptomycin. 5% fetal bovine serum. Real Time Quantitative RT-PCR was conducted according to the following method: UMR 106-01 cells were seeded in 12-well plates and cultured for 2-3 days in cell culture media. When cells were confluent, cell culture media was exchanged with 1% fetal bovine serum for overnight for cell starvation. Cells were pre-incubated with dentifrice for 15 min and then incubated with PTH (10^−8 M) for 4 hours.
# Total RNA was isolated from UMR 106-01 cells stimulated with or without PTH with TRIzol reagent. Total RNA (0.1 μg) was reverse-transcribed to cDNA using the Invitrogen SUPERSCRIPT kit according to the manufacturer's instructions. All cDNAs were amplified by adding 2.5 μl of cDNA to the PCR mixture (22.5 μl) containing each primer (0.2 μM) and 12.5 μl of the Platinum SYBR Green qPCR SuperMix UDG (Invitrogen). The reactions were preincubated at 50° C. for 2 minutes to decontaminate dU-containing DNA by UDG, then at 95° C. for 2 minutes to inactivate UDG and activate Taq. The PCR program continued 49 cycles of denaturation at 95° C. for 15 seconds, annealing and elongation of the primers at 60° C. for 30 seconds. Relative quantification of gene expression was determined by using the 2-delta delta CT method where fold changes in gene expression are relative to control samples. All samples were normalized to β-actin.
# All results were expressed as means±standard error (S.E.) of triplicate measurements with all experiments being repeated at least three times. Statistical analyses were carried out using the Student's t test.
compound,measurement,setting,value
"Oc1cc(Cl)ccc1Oc1ccc(Cl)cc1Cl [Triclosan, 2,4,4′-trichloro-2′-hydroxydiphenyl ether]",MMP-9 level in TNFα stimulated U937 cells,[1]; Triclosan at 1 ppm,significantly reduced
same,"MMP-9 production, Average",[1]; TNFα 250 ng/mL + Triclosan 1 ppm,0.155 ng/mL
same,factor by which antibacterial activity of triclosan is reduced,[2],10-20
same,MMP-13 expression in PTH stimulated UMR cells,[3]; 1 ppm,significantly reduced
same,MMP-13 expression in PTH stimulated UMR cells,[3]; 4 ppm,significantly reduced
same,MMP-13 expression in PTH stimulated UMR cells,[3]; 10 ppm,significantly reduced
"PTH: Parathyroid hormone (rat PTH 1-34) purchased from Sigma, used to stimulate MMP-13 expression (AVSEIQLMHNLGKHLASVERMQWLRKKLQDVHNF; Parathyroid hormone; UniProt P04089 32-65, looked up, fragment)",MMP-13 expression in UMR cells,[3]; stimulated with PTH 10^-8 M,increase
TNFα,"MMP-9 production, Average",[1]; TNFα 250 ng/mL alone,0.275 ng/mL
same,MMP-9 level in U937 cells,[1]; stimulated with TNFα,increase

# From patent US8753820B2, “Protein biomarkers for soft tissue disease diagnosis and as therapeutic targets for oral care intervention” (Colgate-Palmolive Company, priority 2009, dated 2014)
